Values joined by “and” are separate entries in the source; they are usually repeats but may differ in a detail not shown here. Identical values can stand only once.
Columns and labels:
purified PARP protein = purified PARP protein (Homo sapiens, UniProt P09874); test: PARP enzyme inhibition assay; format: biochemical; conditions: 20 nM purified PARP (5 nM for tight-binding inhibitors), 500 μM NAD+, 25° C.; several values in one cell = repeat determinations; read-out: Inhibition Constant Ki
A549 cells = test: Cytotoxicity potentiation assay; format: cell-based; conditions: test compound 0.4 μM, ratio of IC50 of topotecan alone to IC50 of topotecan with test compound
Protocol: A549 cells (ATCC, Rockville, Md.) were seeded into 96-well cell culture plates (Falcon brand, Fisher Scientific, Pittsburgh, Pa.) 16 to 24 hours before experimental manipulation. Cells were then treated with a test compound (or a combination of test compounds where indicated) each at a concentration of 0.4 μM for either 3 days or 5 days. At the end of treatments, relative cell number was determined either by MTT assay or SRB assay. For the MTT assay, 0.2 μg/μl of MTT (3-(4,5-dimethylthiazol-2-yl)-2,5-diphenyltetrazolium bromide) (Sigma Chemical Co., St. Louis, Mo.) was added to each well of a plate, and the plate was incubated in a cell-culture incubator for 4 hours. Metabolized MTT in each well was solubilized in 150 μl of DMSO (Sigma Chemical Co.) with shaking and quantified with a Wallac 1420 Victor plate reader (EG&G Wallac, Gaithersburg, Md.) at 540 nm. For the SRB assay, cells were fixed with 10% trichloroacetic acid (Sigma Chemical Co) for an hour at 4° C. After extensively washing, fixed cells were stained for 30 minutes with 0.4% sulforhodamine B (SRB, Sigma Chemical Co.) in 1% acetic acid (Sigma Chemical Co). Unbound SRB was washed away with 1% acetic acid. Then the cultures were air-dried, and dye was solubilized with 10 mM unbuffered Tris base (Sigma Chemical Co) with shaking. The bound dye was measured photometrically with the Wallac Victor plate reader at 515 nm. The ratio of the OD (optical density) value of a compound-treated culture to the OD value of a mock-treated culture, expressed in percentage, was used to quantify the cytotoxicity of a compound. […] To quantify the potentiation of the cytotoxicity of topotecan or temozolomide by test compounds, a dimensionless parameter PF50 is used and is defined as the ratio of the IC50 of topotecan or temozolomide alone to the IC50 of topotecan or temozolomide in combination with a test compound. For the compounds of the invention, PF50 values were determined by testing with topotecan.

Sequence of purified PARP protein (P09874 whole entry): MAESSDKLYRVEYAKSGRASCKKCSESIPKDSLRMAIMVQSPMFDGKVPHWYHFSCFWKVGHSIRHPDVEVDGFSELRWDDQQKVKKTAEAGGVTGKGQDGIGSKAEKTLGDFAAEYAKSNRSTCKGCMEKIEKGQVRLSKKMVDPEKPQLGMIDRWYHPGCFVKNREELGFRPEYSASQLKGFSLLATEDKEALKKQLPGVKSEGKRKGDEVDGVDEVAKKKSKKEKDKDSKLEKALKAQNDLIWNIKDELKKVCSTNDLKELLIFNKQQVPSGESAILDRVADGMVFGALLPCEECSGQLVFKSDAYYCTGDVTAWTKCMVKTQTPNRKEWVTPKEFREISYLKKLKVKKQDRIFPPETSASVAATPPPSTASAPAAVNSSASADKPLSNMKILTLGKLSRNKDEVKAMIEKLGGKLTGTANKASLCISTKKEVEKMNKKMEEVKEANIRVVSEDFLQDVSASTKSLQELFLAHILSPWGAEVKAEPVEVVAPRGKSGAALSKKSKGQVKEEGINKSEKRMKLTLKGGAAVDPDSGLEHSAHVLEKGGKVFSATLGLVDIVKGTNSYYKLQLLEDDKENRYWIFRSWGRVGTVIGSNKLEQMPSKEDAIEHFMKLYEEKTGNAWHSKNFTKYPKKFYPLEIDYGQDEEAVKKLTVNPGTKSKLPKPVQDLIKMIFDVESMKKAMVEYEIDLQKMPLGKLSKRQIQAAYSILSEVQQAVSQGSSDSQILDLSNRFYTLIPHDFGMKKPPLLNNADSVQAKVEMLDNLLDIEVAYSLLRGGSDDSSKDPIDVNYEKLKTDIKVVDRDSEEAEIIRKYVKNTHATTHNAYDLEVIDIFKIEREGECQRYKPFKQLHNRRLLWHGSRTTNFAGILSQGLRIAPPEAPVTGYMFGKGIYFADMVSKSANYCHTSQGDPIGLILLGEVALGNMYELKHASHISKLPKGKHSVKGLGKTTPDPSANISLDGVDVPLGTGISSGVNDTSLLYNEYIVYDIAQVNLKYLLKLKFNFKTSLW

Row | SMILES | Ki (purified PARP protein) | melting point | Cytotoxicity Potentiation PF50 (A549 cells)
1 | O=C1NCCn2c(-c3ccc(Cl)cc3)nc3cccc1c32 [Example 14, 1-(4-Chloro-phenyl)-8,9-dihydro-7H-2,7,9a-triaza-benzo[cd]azulen-6-one] | 5.7 nM and 7.6 nM | 272 to 274 °C | 1.8
2 | O=C1NCCn2c(-c3ccc(-c4cccnc4)cc3)nc3cccc1c32 [Example 134, 1-(4-Pyridin-3-yl-phenyl)-8,9-dihydro-7H-2,7,9a-triaza-benzo[cd]azulen-6-one] | 2.8 nM | 284 to 286 °C | 2.5
3 | O=C1NCCn2c(-c3ccc(F)c(F)c3)nc3cccc1c32 [Example 4, 1-(3,4-Difluoro-phenyl)-8,9-dihydro-7H-2,7,9a-triaza-benzo[cd]azulen-6-one] | 6.5 nM | 245 to 247 °C | 1.5
4 | CNCc1cccc(-c2nc3cccc4c3n2CCNC4=O)c1 [Example 59, 1-(3-Methylaminomethyl-phenyl)-8,9-dihydro-7H-2,7,9a-triaza-benzo[cd]azulen-6-one] | 4.2 nM | 110 °C (dec.) | 1.8
5 | O=C1NCCn2c(-c3ccc(Cl)cc3)cc3cccc1c32 [Example 34, 6-(4-Chlorophenyl)-3,4-dihydro-2H-[1,4]diazepino[6,7,1-hi]indol-1-one] | 11 nM | 178 to 180 °C | 1.8
6 | CNCc1ccc(-c2nc3cc(F)cc4c3n2CCNC4=O)cc1 [Example 98, 4-Fluoro-1-(4-methylaminomethyl-phenyl)-8,9-dihydro-7H-2,7,9a-triaza-benzo[cd]azulen-6-one] | 3.3 nM | 204 to 208 °C (dec.) | 2.1
7 | O=C1NCCn2c(-c3ccc(C4CCCN4)cc3)nc3cccc1c32 (stereo not drawn) [Example 148, 1-(4-Pyrrolidin-2-yl-phenyl)-8,9-dihydro-7H-2,7,9a-triaza-benzo[cd]azulen-6-one] | 2.8 nM | 220 to 223 °C (dec.) | 2.5

Continued, in another order:

Row | Ki (purified PARP protein) | melting point | SMILES | Cytotoxicity Potentiation PF50 (A549 cells)
8 | 6.9 nM | 154 to 157 °C | COCCNCc1ccc(-c2nc3cccc4c3n2CCNC4=O)cc1 [Example 77, 1-(4-[(2-Methoxyethylamino)methyl]-phenyl)-8,9-dihydro-7H-2,7,9a-triaza-benzo[cd]azulen-6-one] | 1.7
9 | 4 nM and 5.4 nM | > 201 °C (dec.) | O=C1NCCn2c(-c3ccc(CCN4CCCC4)cc3)nc3cccc1c32 [Example 128, 1-[4-(2-Pyrrolidin-1-yl-ethyl)-phenyl]-8,9-dihydro-7H-2,7,9a-triaza-benzo[cd]azulen-6-one] | 1.8
10 | 4.1 nM | 277 to 279 °C | O=C1NCCn2c(-c3ccc(-c4ccccn4)cc3)nc3cccc1c32 [Example 126, 1-(4-Pyridin-2-yl-phenyl)-8,9-dihydro-7H-2,7,9a-triaza-benzo[cd]azulen-6-one] | 2.2
11 | 1.9 nM | 169 to 172 °C | CNCc1ccc(-c2nc3cccc4c3n2CCNC4=O)cc1 [Example 75, 1-(4-Methylaminomethyl-phenyl)-8,9-dihydro-7H-2,7,9a-triaza-benzo[cd]azulen-6-one] | 1.8
12 | 6.2 nM | 247 to 250 °C | O=C1NCCn2c(-c3cccs3)nc3cccc1c32 [Example 8, 1-Thiophen-2-yl-8,9-dihydro-7H-2,7,9a-triaza-benzo[cd]azulen-6-one] | 1.9
13 | 5 nM | > 98 °C (dec.) | CN(C)CCc1ccc(-c2nc3cccc4c3n2CCNC4=O)cc1 [Example 129, 1-[4-(2-Dimethylamino-ethyl)-phenyl]-8,9-dihydro-7H-2,7,9a-triaza-benzo[cd]azulen-6-one] | 1.9

— patent US6548494B1, “Tricyclic inhibitors of poly(ADP-ribose) polymerases” (Agouron Pharmaceuticals, Inc., priority 1999, dated 2003)
